Data as given in publication PMC9115767 (European journal of medicinal chemistry, 2021).
pEC50: −log10 of the molar value. Like-named read-outs stand apart in the source and are kept apart here.

Columns and labels:
HIV-2 ROD = assay: microbe, parasite or virus in culture; format: cell-based
HIV-1 IIIB = format: cell-based
in vitro = conditions: human, microsomes
[1] = selectivity index, ratio CC50/EC50, HIV-2 ROD
[2] = selectivity index, ratio CC50/EC50, HIV-1 IIIB

SMILES	SI HIV ROD (HIV-2 ROD; [1])	SI HIV ROD (HIV-2 ROD)	other results
COc1ccc(N(C)C(=O)[C@H](Cc2cc(F)cc(F)c2)NC(=O)CN2CCN(CC(=O)N[C@@H](Cc3ccccc3)C(=O)N(C)c3ccc(OC)cc3)C(=O)C2)cc1 [Q-c2, (S)-3-(3,5-difluorophenyl)-N-(4-methoxyphenyl)-2-(2-(4-(2-(((S)-1-((4-methoxyphenyl)(methyl)amino)-1-oxo-3-phenylpropan-2-yl)amino)-2-oxoethyl)-3-oxopiperazin-1-yl)acetamido)-N-methylpropanamide]	<1.00		
COc1ccc(N(C)C(=O)[C@H](Cc2ccccc2)NC(=O)CN2CCN(CC(=O)N[C@@H](Cc3ccccc3)C(=O)N(C)c3ccc(OC)cc3)C(=O)C2)cc1 [Q-c1, (2S,2′S)-2,2'-((2,2'-(2-oxopiperazine-1,4-diyl)bis(acetyl))bis(azanediyl)) bis(N-(4-methoxyphenyl)-N-methyl-3-phenylpropanamide)]		<1.00	SI HIV IIIB (HIV-1 IIIB): ≤4.29
COc1ccc(N(C)C(=O)[C@H](Cc2ccccc2)NC(=O)CN2CCN(CC(=O)N[C@@H](Cc3cc(F)cc(F)c3)C(=O)N(C)c3ccc(OC)cc3)C(=O)C2)cc1 [Q-c5, (S)-3-(3,5-difluorophenyl)-N-(4-methoxyphenyl)-2-(2-(4-(2-(((S)-1-((4-methoxyphenyl)(methyl)amino)-1-oxo-3-phenylpropan-2-yl)amino)-2-oxoethyl)-2-oxopiperazin-1-yl)acetamido)-N-methyl-propanamide]	<1.00		
COc1ccc(N(C)C(=O)[C@H](Cc2ccccc2)NC(=O)CN2CCNCC2=O)cc1 [Q-b2, (S)–N-(4-methoxyphenyl)-N-methyl-2-(2-(2-oxopiperazin-1-yl)acetamido)-3-phenylpropanamide]	>8.94		SI HIV IIIB (HIV-1 IIIB; [2]): >3.30
COc1ccc(N(C)C(=O)[C@H](Cc2ccccc2)NC(=O)CN2CCN(CC(=O)N[C@@H](Cc3ccccc3)C(=O)N(C)c3ccccc3)CC2=O)cc1 [Q-c3, (S)–N-(4-methoxyphenyl)-N-methyl-2-(2-(4-(2-(((S)-1-(methyl(phenyl)amino)-1-oxo-3-phenylpropan-2-yl)amino)-2-oxoethyl)-2-oxopiperazin-1-yl)acetamido)-3-phenylpropanamid]	<1.00		SI HIV IIIB (HIV-1 IIIB; [2]): <1.00
CN(C(=O)[C@H](Cc1ccccc1)NC(=O)CN1CCNCC1=O)c1ccccc1 [Q-b1, (S)–N-methyl-2-(2-(2-oxopiperazin-1-yl)acetamido)-N,3-diphenyl propanamide]		>1.19	SI HIV IIIB (HIV-1 IIIB): >1.28; CC50 (MT-4 cells): > 317 µM
COc1ccc(N(C)C(=O)[C@H](Cc2ccccc2)NC(=O)CN2CC(=O)N(CC(=O)N[C@@H](Cc3ccccc3)C(=O)N(C)c3ccc(OC)cc3)CC2=O)cc1 [Q-a1, (2S,2′S)-2,2'-((2,2'-(2,5-dioxopiperazine-1,4-diyl)bis(acetyl))bis(azanediyl)) bis(N-(4-methoxyphenyl)-N-methyl-3-phenylpropanamide)]		<1.00	
COc1ccc(N(C)C(=O)[C@H](Cc2cc(F)cc(F)c2)NC(=O)CN2CCN(CC(=O)N[C@@H](Cc3ccccc3)C(=O)N(C)c3ccccc3)CC2=O)cc1 [Q-c6, (S)-3-(3,5-difluorophenyl)-N-(4-methoxyphenyl)-N-methyl-2-(2-(4-(2-(((S)-1-(methyl(phenyl)amino)-1-oxo-3-phenylpropan-2-yl)amino)-2-oxoethyl)-2-oxopiperazin-1-yl)acetamido)propenamide]		<1.00	
COc1ccc(N(C)C(=O)[C@H](Cc2ccccc2)NC(=O)CN2CCN(CC(=O)N[C@@H](Cc3ccccc3)C(=O)N(C)c3ccccc3)C(=O)C2)cc1 [Q-c9, (S)–N-(4-methoxyphenyl)-N-methyl-2-(2-(4-(2-(((S)-1-(methyl(phenyl)amino)-1-oxo-3-phenylpropan-2-yl)amino)-2-oxoethyl)-3-oxopiperazin-1-yl)acetamido)-3-phenylpropanamide]	<1.00		SI HIV IIIB (HIV-1 IIIB; [2]): ≤6.45
COc1ccc(N(C)C(=O)[C@H](Cc2cc(F)cc(F)c2)NC(=O)CN2CC(=O)N(CC(=O)N[C@@H](Cc3cc(F)cc(F)c3)C(=O)N(C)c3ccc(OC)cc3)CC2=O)cc1 [Q-a2, (2S,2S)-22′-((2,2'-(2,5'-dioxopiperazine-1,4-diyl)bis(acetyl))bis(azanediyl)) bis(3-(3,5-di-N-difluorophenyl)-N-(4-methoxyphenyl)-N-methylpropanamide)]			CLint scaled at 3 h, 100 µM (in vitro): 760 mL/min/kg
CN(C(=O)[C@H](Cc1ccccc1)NC(=O)CN1CCN(CC(=O)N[C@@H](Cc2ccccc2)C(=O)N(C)c2ccccc2)C(=O)C1)c1ccccc1 [Q-c7, (2S,2′S)-2,2'-((2,2'-(2-oxopiperazine-1,4-diyl)bis(acetyl))bis(azanediyl)) bis(N-methyl-N,3-diphenylpropanamide)]		<1.00	SI HIV IIIB (HIV-1 IIIB): <1.00; pEC50 (HIV-2 ROD; Human immunodeficiency virus 2, MT4, read-out: EC50 HIV ROD): < 4.49
COc1ccc(N(C)C(=O)[C@H](Cc2cc(F)cc(F)c2)NC(=O)CN2CCN(CC(=O)N[C@@H](Cc3ccccc3)C(=O)N(C)c3ccccc3)C(=O)C2)cc1 [Q-c8, (S)-3-(3,5-difluorophenyl)-N-(4-methoxyphenyl)-N-methyl-2-(2-(4-(2-(((S)-1-(methyl(phenyl)amino)-1-oxo-3-phenylpropan-2-yl)amino)-2-oxoethyl)-3-oxopiperazin-1-yl)acetamido)propenamide]		<1.00	
COc1ccc(N(C)C(=O)[C@H](Cc2ccccc2)NC(=O)CN2CCN(S(=O)(=O)c3ccc(N)cc3)CC2=O)cc1 [Compound 11l, reference compound]			CLint scaled at 3 h, 100 µM (in vitro): 356 mL/min/kg
